Experimental data reported in ChEMBL document CHEMBL4483862, “Open-source discovery of chemical leads for next-generation chemoprotective antimalarials” (2018).

System: Plasmodium berghei
Assay: Luciferase/luciferin-expressing antifolate-resistant parasites were used to infect a culture of HepG2 cells that were pre-incubated with compounds. Infected hepatocytes emit light due to the luciferase reaction. Assay results are presented as the percent inhibition of light emission compared to control. […]
Assay type: functional
Conditions: sporozoite; for IC50: read-out: LUCIFERASE INFECTION ASSAY - IC50; for IC90: read-out: LUCIFERASE INFECTION ASSAY - IC90

Structure (SMILES) | IC50 [µM] | IC90 [µM]
COCCCNC(=O)Cc1ccc(S(=O)(=O)N2CCOCC2)s1 | > 10 | > 10
Cc1ccc(N2C(=O)N(CC(=O)N3CCc4ccccc43)C(=O)C2C)cc1 (configuration not stated) | > 2 | > 2
Cc1nc(-c2ccc3c(c2)CC(=O)N3C)cs1 | > 10 | > 10
Cc1sc2ncnc(Sc3nc4ncccn4n3)c2c1C | > 2 | > 2
CC1CCN(Cc2ccc(CNC(=O)CCn3cncn3)cc2)CC1 | > 10 | > 10
COc1ccc(OCc2noc(CN3CCc4ccccc43)n2)cc1 | > 2 | > 2
O=C1c2ccccc2NC(c2cc(Br)cs2)N1C1CC1 (configuration not stated) | > 10 | > 10
Cc1nn(CC(=O)N2c3ccccc3NC(=O)CC2C)c(=O)c(C#N)c1C (configuration not stated) | > 2 | > 2
FC(F)(F)c1nnc2ccc(Oc3ccc(Cl)c4ccccc34)nn12 | > 10 | > 10
O=C(NCC1COc2ccccc2O1)c1cc2ccccc2cc1O (configuration not stated) | > 10 | > 10
CCCc1noc(CCC(=O)Nc2nc3cc4c(cc3s2)OCCO4)n1 | > 10 | > 10
COc1ccc2nc(C)cc(N3CCc4c(sc(N)c4C#N)C3)c2c1 | > 10 | > 10
CC(NCc1nc(N)nc(N(C)C)n1)c1ccccc1Cl (configuration not stated) | > 10 | > 10
O=C(Nc1cccnc1-n1cccn1)c1csc(-c2ccc(Cl)cc2)n1 | > 2 | > 2
CC(=O)c1ccc(N2CCN(c3nc4ccccc4s3)CC2)cc1 | 3.62 | > 10
CC(C)C(=O)NC1CCCC(C)C1C (configuration not stated) | > 2 | > 2
Cc1cc(CSc2nnc(CN3CCCCC3)n2-c2ccc(F)cc2)on1 | > 10 | > 10
CCc1ccc(S(=O)(=O)Oc2ccccc2NC(C)=O)cc1 | > 10 | > 10
CN1CCN(S(=O)(=O)c2ccc(SCC3CCCCC3)nc2)CC1 | > 10 | > 10
COc1ccc(-c2nc(C=C3C(=O)c4ccccc4C3=O)cs2)cc1 | > 10 | > 10
Clc1ccccc1CNc1ncnc2ccsc12 | > 10 | > 10
Cc1ccc2nc(CNc3ccccc3-c3ccccc3)cc(=O)n2c1 | > 10 | > 10
CC(=O)c1c[nH]c(C(=O)OCC(=O)NCCc2ccc(C(C)C)cc2)c1 | > 2 | > 2

Structure (SMILES) | IC50 [µM] | IC90 [µM]
CCCN1C(=O)C(=O)N(CN2CCc3sccc3C2)C1=O | > 2 | > 2
Nc1nc(CN2CCN(Cc3cccc4cccnc34)CC2)nc2ccccc12 | > 10 | > 10
O=C(CN1CCN(C(=O)c2ccc(=O)n(Cc3ccccc3)n2)CC1)NC1CC1 | > 10 | > 10
COC(=O)c1c(CSc2nnnn2C)nc2ccccc2c1-c1ccccc1 | > 10 | > 10
Cc1cccc(N2CCN(CC(=O)c3ccc[nH]3)CC2)c1C | > 10 | > 10
CC(=O)Nc1cc(C(=O)CSc2ncnc3sccc23)ccc1O | > 10 | > 10
CN1CCN(c2ccc(CNS(=O)(=O)c3cccs3)cn2)CC1 | > 2 | > 2
CC(C)(C)OC(=O)N1CCN(CN2C(=O)NC3(CCCCC3)C2=O)CC1 | > 10 | > 10
CN(C(=O)Cn1nnc(-c2cccc(C(F)(F)F)c2)n1)C1(C#N)CCCCC1 | > 10 | > 10
Cc1c(C(=O)NCCc2ccc3c(c2)OCCO3)cnn1-c1ccc(Cl)cc1 | > 2 | > 2
Cc1cc(NC(=O)CCc2c(-c3ccc(F)cc3)[nH]c3ccc(F)cc23)no1 | > 10 | > 10
CC(C)C(=O)NCc1coc(-c2cccs2)n1 | > 10 | > 10
CCOc1ccc(S(=O)(=O)N2CCCCC2)cc1NC(=O)C1CC=CCC1 (configuration not stated) | > 10 | > 10
CCOc1ccc(C(=O)COC(=O)c2c3ccccc3cc3ccccc23)cc1 | > 10 | > 10
c1ccc(C(Sc2ncnc3sccc23)c2ccccc2)cc1 | > 10 | > 10
O=C(OC(C(=O)N1CCOCC1)c1ccccc1)c1cccc(-n2cccc2)c1 (configuration not stated) | > 2 | > 2
CC(NC(=O)c1cn(C)c2ccccc12)c1ccccn1 (configuration not stated) | > 2 | > 2
CC(C)n1ncc2c(C(=O)Nc3ccn(C)n3)cc(-c3cccs3)nc21 | > 10 | > 10
COCc1c(C(=O)Nc2nnc(C3CCCCC3)s2)oc2ccccc12 | > 10 | > 10
Cc1c(Cl)cccc1NC(=O)CNC(=O)CN1CCc2ccccc2C1 | > 10 | > 10
Cc1cn2c(/C=C/c3nc4cc(Cl)ccc4o3)c(C)nc2s1 | > 10 | > 10
Cc1occc1C(=O)N1CCN(C(=O)c2ccc3ccccc3c2)CC1 | > 2 | > 2
CC(NC(=O)C1CCCN(C(=O)OC(C)(C)C)C1)c1ccc(-n2ccnc2)cc1 (configuration not stated) | > 2 | > 2

Structure (SMILES) | IC50 [µM] | IC90 [µM]
CCOc1cc(C(=O)NC2CCCCCC2)ccc1OCc1cccnc1 | > 2 | > 2
Cc1nc2ccccc2nc1SCC(=O)Nc1ccccc1N1CCOCC1 | > 10 | > 10
Cc1ccccc1COC(=O)C1(NC(=O)NCc2ccccc2)CCCC1 | > 10 | > 10
CCn1nnnc1Sc1ncnc2scc(-c3ccc(C)cc3)c12 | > 10 | > 10
CN(CCOc1ccccc1F)C(=O)c1cc(S(=O)(=O)N2CCCC2)c[nH]1 | > 2 | > 2
Cc1ccc(C(=O)CN2C(=O)C(=O)N(C)C2=O)cc1C | > 10 | > 10
O=c1[nH]c2ccc(-c3csc(-c4ccsc4)n3)cc2[nH]1 | 4.23 | > 10
CCN(CC)Cc1ccccc1CNC(=O)c1cccc2ccccc12 | > 10 | > 10
O=C(NCCOc1ccccc1F)NCC1CC1 | > 10 | > 10
CN(C)C(CNC(=O)c1cc(C2CC2)nn1-c1ccccc1)Cc1ccccc1 (configuration not stated) | > 10 | > 10
COc1cccc2sc(NC(=O)C3CCN(C(C)=O)CC3)nc12 | > 10 | > 10
C=CCc1cc(C(=O)Nc2ccc3oc(C)nc3c2)cc(OC)c1OC | 4.31 | > 10
Cc1ccsc1CN(C)Cc1nnc(C(=O)Nc2ccc(Cl)cc2)s1 | > 10 | > 10
Cc1cc2ccccc2n1CC(=O)NCc1ccc(NC(=O)c2ccco2)cc1 | 5.73 | > 10
NC(=O)N1CC=C(c2ccc(Oc3ncnc4sccc34)cc2)CC1 | > 2 | > 2
Cc1ncsc1CCOC(=O)c1cc(Cl)c2c(c1)OCCO2 | > 10 | > 10
O=C(Nc1ccc(Cl)c(C(F)(F)F)c1)c1[nH]nc2ccccc12 | > 10 | > 10
Cc1cc(C)n2nc(SC(C)C(=O)N3CCCc4ccccc43)nc2n1 (configuration not stated) | > 2 | > 2
COc1cccc2c1N(S(=O)(=O)c1ccccc1C(F)(F)F)CCC2 | > 2 | > 2
Cc1ccc(C)c(OCCN2CCN(CC(=O)Nc3c(C)cccc3C)CC2)c1 | > 10 | > 10
O=c1cc(CN2CCCc3ccc(C(F)(F)F)cc32)nc2sccn12 | > 10 | > 10
CNC(=O)c1ccc(C)c(C)c1 | > 10 | > 10
CCN(Cc1ccccc1)C(=O)c1cc(-c2ccccc2)nc2c1cnn2CC | > 10 | > 10

Structure (SMILES) | IC50 [µM] | IC90 [µM]
Cc1ccc(COC(=O)c2cccc3c(=O)c(C)c(-c4ccccc4)oc23)cc1 | > 10 | > 10
Cc1[nH]c2ccc(C(=O)Nc3ccc(-n4cnnn4)cc3)cc2c1C | > 10 | > 10
Cc1cc(N2CCN(C(=O)C(C)Oc3ccc(F)cc3)CC2)nc(C(C)C)n1 (configuration not stated) | > 10 | > 10
O=C(CNc1ccc(Oc2ccc(Br)cc2)cc1)NC1CC1 | > 10 | > 10
COc1ccc(-c2csc(CC(=O)NCc3ccccc3)n2)c(OC)c1 | > 10 | > 10
NS(=O)(=O)c1ccc2c(c1)CCN2Cc1ccc(Cl)cc1 | > 2 | > 2
CCC(C(=O)Nc1nc(C)c(Cc2ccc3c(c2)OCO3)s1)c1ccccc1 (configuration not stated) | > 10 | > 10
CC(NC(=O)c1cccc(Nc2ncccn2)c1)c1cccc(C(F)(F)F)c1 (configuration not stated) | 0.729 | 6.34
COc1cccc(-c2noc(COC(=O)c3ccc(C)s3)n2)c1 | > 10 | > 10
CCC(C)(C)NC(=O)CSc1nnc(/C=C/c2ccccc2C)[nH]1 | > 10 | > 10
COC(=O)c1ccc(NC(=O)Cc2ccc(NC(=O)OC(C)(C)C)cc2)c(C)c1 | > 10 | > 10
COCCNC(=O)CN(C)S(=O)(=O)c1ccc2c(c1)CCC(=O)N2 | > 10 | > 10
O=C(NCc1ccccc1CN1CCOCC1)c1cccc(C(F)(F)F)c1 | > 10 | > 10
Cc1ccc(C(=O)Nc2cccc(CNC(C)c3ccc(F)cc3F)c2)cc1 (configuration not stated) | > 10 | > 10
COc1ccccc1NS(=O)(=O)c1ccc2nc(-c3ccncc3)[nH]c2c1 | > 10 | > 10
Cc1ccc(-n2c(C)cc(C(=O)CSc3n[nH]c(=O)n3C3CC3)c2C)cc1C | > 10 | > 10
CN(Cc1ccc(Br)s1)c1ncccc1C(N)=O | > 2 | > 2
CC(=O)NCCNC(=O)c1ccc(OCC2CCCO2)cc1 (configuration not stated) | > 2 | > 2
CC(OC(=O)c1n[nH]c(=O)c2ccccc12)C(=O)N(CCC#N)c1ccccc1 (configuration not stated) | > 10 | > 10
CCCNC(=O)COc1ccc(Nc2ccccc2)cc1 | > 10 | > 10
Cc1nn(-c2ccccc2)c(C)c1CC(=O)Nc1ccc2c(c1)OC(F)(F)O2 | > 10 | > 10
CN1C(=O)N(CN2CCN(c3ccccn3)CC2)C(=O)C12CCCCC2 | > 10 | > 10
